Experimental data as given in BindingDB's records for doi:10.1038/sj.bjp.0705908 (Abbott Laboratories, 2004).

Molecular target: T1, Calcium-activated potassium channel subunit beta (Sus scrofa, UniProt C0KY85)
T1 sequence (C0KY85 whole entry): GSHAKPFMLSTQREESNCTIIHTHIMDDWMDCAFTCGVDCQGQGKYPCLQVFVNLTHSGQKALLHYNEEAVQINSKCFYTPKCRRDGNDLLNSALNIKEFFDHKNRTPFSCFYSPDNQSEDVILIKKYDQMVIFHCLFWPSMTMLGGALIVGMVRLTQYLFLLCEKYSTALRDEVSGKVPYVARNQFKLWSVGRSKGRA

In the case of `CCC(C)(C)NC(=NC#N)Nc1cccnc1` [NSC_43345], the Ki is reported as 10.7 nM.
